Measured values reported in PMC6979384, “Characterization of the plant homeodomain (PHD) reader family for their histone tail interactions” (Epigenetics & Chromatin, 2020).
Where no end group is shown, it is not given here. [ ]: non-standard residue; d: D form. pT = C[C@@H](OP(=O)(O)O)[C@H](N)C(=O)O; Lys(Me) = CNCCCC[C@H](N)C(=O)O

Key:
Assay in all cases: Histone peptide microarray
Assay type in all cases: binding, human
[1] = tested on: ING3; conditions: each array performed twice, total n = 4; for Array Heatmap value (peptide array signal): ING3, sheet "Array Heatmap"
Summary of the method: (§1)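 Mean ± SD of 4 replicate array intensities; GST-PHD finger at 0.5 μM against 293 PTM-bearing histone peptides.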

[2] = tested on: PHF21A; conditions: each array performed twice, total n = 4; for Array Heatmap value (peptide array signal): PHF21A, sheet "Array Heatmap"
Summary of the method: as §1

[3] = tested on: RAG2; conditions: each array performed twice, total n = 4; for Array Heatmap value (peptide array signal): RAG2, sheet "Array Heatmap"
Summary of the method: as §1

[4] = tested on: PHF2; conditions: each array performed twice, total n = 4; for Array Heatmap value (peptide array signal): PHF2, sheet "Array Heatmap"
Summary of the method: as §1

[5] = tested on: PHF13; conditions: each array performed twice, total n = 4; for Array Heatmap value (peptide array signal): PHF13, sheet "Array Heatmap"
Summary of the method: as §1

[6] = tested on: CHD5 (PPCC); conditions: each array performed twice, total n = 4; for Array Heatmap value (peptide array signal): CHD5 (PPCC), sheet "Array Heatmap"
Summary of the method: as §1

[7] = tested on: ING4; conditions: each array performed twice, total n = 4; for Array Heatmap value (peptide array signal): ING4, sheet "Array Heatmap"
Summary of the method: as §1

[8] = tested on: BPTF (PB); conditions: each array performed twice, total n = 4; for Array Heatmap value (peptide array signal): BPTF (PB), sheet "Array Heatmap"
Summary of the method: as §1

[9] = tested on: SP140L; conditions: each array performed twice, total n = 4; for Array Heatmap value (peptide array signal): SP140L, sheet "Array Heatmap"
Summary of the method: as §1

[10] = tested on: BAZ2B; conditions: each array performed twice, total n = 4; for Array Heatmap value (peptide array signal): BAZ2B, sheet "Array Heatmap"
Summary of the method: as §1

[11] = tested on: AIRE (PP); conditions: each array performed twice, total n = 4; for Array Heatmap value (peptide array signal): AIRE (PP), sheet "Array Heatmap"
Summary of the method: as §1

[12] = tested on: MLL5; conditions: each array performed twice, total n = 4; for Array Heatmap value (peptide array signal): MLL5, sheet "Array Heatmap"
Summary of the method: as §1

[13] = tested on: ING2; conditions: each array performed twice, total n = 4; for Array Heatmap value (peptide array signal): ING2, sheet "Array Heatmap"
Summary of the method: as §1

[14] = tested on: KDM5B (1); conditions: each array performed twice, total n = 4; for Array Heatmap value (peptide array signal): KDM5B (1), sheet "Array Heatmap"
Summary of the method: as §1

[15] = tested on: ING5; conditions: each array performed twice, total n = 4; for Array Heatmap value (peptide array signal): ING5, sheet "Array Heatmap"
Summary of the method: as §1

[16] = tested on: PHRF1 (RP); conditions: each array performed twice, total n = 4; for Array Heatmap value (peptide array signal): PHRF1 (RP), sheet "Array Heatmap"
Summary of the method: as §1

[17] = tested on: KDM5A (1); conditions: each array performed twice, total n = 4; for Array Heatmap value (peptide array signal): KDM5A (1), sheet "Array Heatmap"
Summary of the method: as §1

[18] = tested on: DIDO1; conditions: each array performed twice, total n = 4; for Array Heatmap value (peptide array signal): DIDO1, sheet "Array Heatmap"
Summary of the method: as §1

[19] = tested on: KDM5B (3); conditions: each array performed twice, total n = 4; for Array Heatmap value (peptide array signal): KDM5B (3), sheet "Array Heatmap"
Summary of the method: as §1

[20] = tested on: TAF3; conditions: each array performed twice, total n = 4; for Array Heatmap value (peptide array signal): TAF3, sheet "Array Heatmap"
Summary of the method: as §1

[21] = tested on: PHF8; conditions: each array performed twice, total n = 4; for Array Heatmap value (peptide array signal): PHF8, sheet "Array Heatmap"
Summary of the method: as §1

[22] = tested on: CHD4 (PPCC); conditions: each array performed twice, total n = 4; for Array Heatmap value (peptide array signal): CHD4 (PPCC), sheet "Array Heatmap"
Summary of the method: as §1

[23] = tested on: KDM7A; conditions: each array performed twice, total n = 4; for Array Heatmap value (peptide array signal): KDM7A, sheet "Array Heatmap"
Summary of the method: as §1

[24] = tested on: CHD5 (PCC); conditions: each array performed twice, total n = 4; for Array Heatmap value (peptide array signal): CHD5 (PCC), sheet "Array Heatmap"
Summary of the method: as §1

[25] = tested on: ING1; conditions: each array performed twice, total n = 4; for Array Heatmap value (peptide array signal): ING1, sheet "Array Heatmap"
Summary of the method: as §1

[26] = tested on: TRIM66 (PB); conditions: each array performed twice, total n = 4; for Array Heatmap value (peptide array signal): TRIM66 (PB), sheet "Array Heatmap"
Summary of the method: as §1

[27] = tested on: DPF2 (PPC2W2); conditions: each array performed twice, total n = 4; for Array Heatmap value (peptide array signal): DPF2 (PPC2W2), sheet "Array Heatmap"
Summary of the method: as §1

[28] = tested on: PHF23; conditions: each array performed twice, total n = 4; for Array Heatmap value (peptide array signal): PHF23, sheet "Array Heatmap"
Summary of the method: as §1

[29] = tested on: KDM5A (3); conditions: each array performed twice, total n = 4; for Array Heatmap value (peptide array signal): KDM5A (3), sheet "Array Heatmap"
Summary of the method: as §1

[30] = tested on: MORC3 (CW); conditions: each array performed twice, total n = 4; for Array Heatmap value (peptide array signal): MORC3 (CW), sheet "Array Heatmap"
Summary of the method: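 GST-tagged PHD finger readers were expressed, purified and applied at 0.5 μM to a microarray of 293 synthetic histone peptides carrying single or combinatorial PTMs, using an optimized protocol. Binding signals are averages with standard deviation from 4 replicates.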

[31] = tested on: KDM4C (TTP); conditions: each array performed twice, total n = 4; for Array Heatmap value (peptide array signal): KDM4C (TTP), sheet "Array Heatmap"
Summary of the method: as §1

## H3K4ac + K9ac: H3 1-20
[1]; GST-tagged ING3, sheet Array Heatmap
  Array Heatmap signal (histone peptide microarray): 0.4596
[2]; GST-tagged PHF21A, sheet Array Heatmap
  Array Heatmap signal (histone peptide microarray): 0.4614
[3]; GST-tagged RAG2, sheet Array Heatmap
  Array Heatmap signal (histone peptide microarray): 0.2758
[4]; GST-tagged PHF2, sheet Array Heatmap
  Array Heatmap signal (histone peptide microarray): 0.54
[5]; GST-tagged PHF13, sheet Array Heatmap
  Array Heatmap signal (histone peptide microarray): 0.5976
[6]; GST-tagged CHD5 (PPCC = Dual PHD + Dual Chromodomain), sheet Array Heatmap
  Array Heatmap signal (histone peptide microarray): 0.5625
[7]; GST-tagged ING4, sheet Array Heatmap
  Array Heatmap signal (histone peptide microarray): 0.4565
[8]; GST-tagged BPTF (PB = PHD + Bromodomain), sheet Array Heatmap
  Array Heatmap signal (histone peptide microarray): 0.3822
[9]; GST-tagged SP140L, sheet Array Heatmap
  Array Heatmap signal (histone peptide microarray): 0.3499
[10]; GST-tagged BAZ2B, sheet Array Heatmap
  Array Heatmap signal (histone peptide microarray): 0.5296
[11]; GST-tagged AIRE (PP), sheet Array Heatmap
  Array Heatmap signal (histone peptide microarray): 0.5254
[12]; GST-tagged MLL5, sheet Array Heatmap
  Array Heatmap signal (histone peptide microarray): 0.5339
[13]; GST-tagged ING2, sheet Array Heatmap
  Array Heatmap signal (histone peptide microarray): 0.6174
[14]; GST-tagged KDM5B (1), sheet Array Heatmap
  Array Heatmap signal (histone peptide microarray): 0.6807
[15]; GST-tagged ING5, sheet Array Heatmap
  Array Heatmap signal (histone peptide microarray): 0.3535
[16]; GST-tagged PHRF1 (RP), sheet Array Heatmap
  Array Heatmap signal (histone peptide microarray): 0.6615
[17]; GST-tagged KDM5A (1), sheet Array Heatmap
  Array Heatmap signal (histone peptide microarray): 0.4969
[18]; GST-tagged DIDO1, sheet Array Heatmap
  Array Heatmap signal (histone peptide microarray): 0.6345
[19]; GST-tagged KDM5B (3), sheet Array Heatmap
  Array Heatmap signal (histone peptide microarray): 0.6207
[20]; GST-tagged TAF3, sheet Array Heatmap
  Array Heatmap signal (histone peptide microarray): 0.3083
[21]; GST-tagged PHF8, sheet Array Heatmap
  Array Heatmap signal (histone peptide microarray): 0.3733
[22]; GST-tagged CHD4 (PPCC = Dual PHD + Dual Chromodomain), sheet Array Heatmap
  Array Heatmap signal (histone peptide microarray): 0.558
[23]; GST-tagged KDM7A, sheet Array Heatmap
  Array Heatmap signal (histone peptide microarray): 0.4244
[24]; GST-tagged CHD5 (PCC = PHD + Dual Chromodomain), sheet Array Heatmap
  Array Heatmap signal (histone peptide microarray): 0.8893
[25]; GST-tagged ING1, sheet Array Heatmap
  Array Heatmap signal (histone peptide microarray): 0.5202
[26]; GST-tagged TRIM66 (PB = PHD + Bromodomain), sheet Array Heatmap
  Array Heatmap signal (histone peptide microarray): 0.6641
[27]; GST-tagged DPF2 (PPC2W2 = Dual PHD + C2W2-type Zn-finger), sheet Array Heatmap
  Array Heatmap signal (histone peptide microarray): 0.6975
[28]; GST-tagged PHF23, sheet Array Heatmap
  Array Heatmap signal (histone peptide microarray): 0.5225
[29]; GST-tagged KDM5A (3), sheet Array Heatmap
  Array Heatmap signal (histone peptide microarray): 0.5679
[30]; GST-tagged MORC3 (CW = CW-type Zn-finger), sheet Array Heatmap
  Array Heatmap signal (histone peptide microarray): 0.3754
[31]; GST-tagged KDM4C (TTP = Tandem Tudor domain + PHD), sheet Array Heatmap
  Array Heatmap signal (histone peptide microarray): 0.5223

## H2BK5me3: H2B 1-24 [Peptide H2BK5me3]
[1]
  Array Heatmap value (peptide array signal): 0.4743
[2]
  Array Heatmap value (peptide array signal): 0.4302
[3]
  Array Heatmap value (peptide array signal): 0.2767
[4]
  Array Heatmap value (peptide array signal): 0.5404
[5]
  Array Heatmap value (peptide array signal): 0.5645
[6]
  Array Heatmap value (peptide array signal): 0.5383
[7]
  Array Heatmap value (peptide array signal): 0.4354
[8]
  Array Heatmap value (peptide array signal): 0.341
[9]
  Array Heatmap value (peptide array signal): 0.332
[10]
  Array Heatmap value (peptide array signal): 0.449
[11]
  Array Heatmap value (peptide array signal): 0.3902
[12]
  Array Heatmap value (peptide array signal): 0.5755
[13]
  Array Heatmap value (peptide array signal): 0.6172
[14]
  Array Heatmap value (peptide array signal): 0.6322
[15]
  Array Heatmap value (peptide array signal): 0.3443
[16]
  Array Heatmap value (peptide array signal): 0.4726
[17]
  Array Heatmap value (peptide array signal): 0.4446
[18]
  Array Heatmap value (peptide array signal): 0.7661
[19]
  Array Heatmap value (peptide array signal): 0.4604
[20]
  Array Heatmap value (peptide array signal): 0.2673
[21]
  Array Heatmap value (peptide array signal): 0.3604
[22]
  Array Heatmap value (peptide array signal): 0.5374
[23]
  Array Heatmap value (peptide array signal): 0.3153
[24]
  Array Heatmap value (peptide array signal): 0.766
[25]
  Array Heatmap value (peptide array signal): 0.5322
[26]
  Array Heatmap value (peptide array signal): 0.6056
[27]
  Array Heatmap value (peptide array signal): 0.6454
[28]
  Array Heatmap value (peptide array signal): 0.5495
[29]
  Array Heatmap value (peptide array signal): 0.4811
[30]
  Array Heatmap value (peptide array signal): 0.3836
[31]
  Array Heatmap value (peptide array signal): 0.446

## H3.3T32pK36me1 (27-45): H3.3 27-45 (KSAPS[pT]GGV[Lys(Me)]KPHRYRPGT; UniProt P84243 28-46, looked up, fragment)
[1]
  Array Heatmap value (peptide array signal): 0.3966
[2]
  Array Heatmap value (peptide array signal): 0.4142
[3]
  Array Heatmap value (peptide array signal): 0.206
[4]
  Array Heatmap value (peptide array signal): 0.4286
[5]
  Array Heatmap value (peptide array signal): 0.5172
[6]
  Array Heatmap value (peptide array signal): 0.4567
[7]
  Array Heatmap value (peptide array signal): 0.3862
[8]
  Array Heatmap value (peptide array signal): 0.2876
[9]
  Array Heatmap value (peptide array signal): 0.3216
[10]
  Array Heatmap value (peptide array signal): 0.3924
[11]
  Array Heatmap value (peptide array signal): 0.3866
[12]
  Array Heatmap value (peptide array signal): 0.508
[13]
  Array Heatmap value (peptide array signal): 0.5942
[14]
  Array Heatmap value (peptide array signal): 0.6155
[15]
  Array Heatmap value (peptide array signal): 0.288
[16]
  Array Heatmap value (peptide array signal): 0.3716
[17]
  Array Heatmap value (peptide array signal): 0.4102
[18]
  Array Heatmap value (peptide array signal): 0.6188
[19]
  Array Heatmap value (peptide array signal): 0.4083
[20]
  Array Heatmap value (peptide array signal): 0.2218
[21]
  Array Heatmap value (peptide array signal): 0.3083
[22]
  Array Heatmap value (peptide array signal): 0.5131
[23]
  Array Heatmap value (peptide array signal): 0.3406
[24]
  Array Heatmap value (peptide array signal): 0.7362
[25]
  Array Heatmap value (peptide array signal): 0.4774
[26]
  Array Heatmap value (peptide array signal): 0.5132
[27]
  Array Heatmap value (peptide array signal): 0.6269
[28]
  Array Heatmap value (peptide array signal): 0.4636
[29]
  Array Heatmap value (peptide array signal): 0.429
[30]
  Array Heatmap value (peptide array signal): 0.3018
[31]
  Array Heatmap value (peptide array signal): 0.4138
